Reference: patent publication US6465486B1 (Ortho-McNeil Pharmaceutical, Inc., priority 1999, dated 2002)
Counter-ions that a name gives are not always drawn. Like-named read-outs stand apart in the source and are kept apart here.

How the values were obtained:
[1] = test system: mouse acetylcholine bromide-induced abdominal constriction; assay: Mouse Acetylcholine Bromide-Induced Abdominal Constriction Assay (MAIT); format: in vivo; conditions: po; dose not given; acetylcholine bromide 5.5 mg/kg i.p. 30 minutes after drug
Procedure: Mouse Acetylcholine Bromide-Induced Abdominal Constriction Assay (MAIT)
The mouse acetylcholine bromide-induced abdominal constriction assay, as described by Collier et al. in Brit. J. Pharmacol. Chem. Ther., 32: 295-310, 1968, with minor modifications was used to assess analgesic potency of the compounds herein. The test drugs or appropriate vehicle were administered orally (p.o.) and 30 minutes later the animal received an intraperitoneal (i.p.) injection of 5.5 mg/kg acetylcholine bromide (Matheson, Coleman and Bell, East Rutherford, N.J.). The mice were then placed in groups of three into glass bell jars and observed for a ten minute observation period for the occurrence of an abdominal constriction response (defined as a wave of constriction and elongation passing caudally along the abdominal wall, accompanied by a twisting of the trunk and followed by extension of the hind limbs). The percent inhibition of this response to a nociceptive, stimulus (equated to % analgesia) was calculated as follows: The % Inhibition of response, i.e., % analgesia is equal to the difference between the number of control animals responding and the number of drug-treated animals responding times 100 divided by the number of control animals responding.
At least 15 animals were used for control and in each of the drug treated groups. […] The ED50 values and their 95% fiducial limits were determined by a computer assisted probit analysis.

[2] = target: T1, Alpha-2D Adrenergic Receptor (Rattus norvegicus, UniProt P22909); assay: Alpha-2D Adrenergic Receptor Binding Assay (3H-para-aminoclonidine, rat cortex membranes); conditions: for % inh of α2D: cells printed with % sign, test concentration not given
T1 construct: aliquots of the synaptic membrane fraction, the ligand ^3H-para-aminoclonidine and test drug; from tissue; host or cells: rat brain cortex, synaptic membrane fraction
T1 sequence (P22909 1-465): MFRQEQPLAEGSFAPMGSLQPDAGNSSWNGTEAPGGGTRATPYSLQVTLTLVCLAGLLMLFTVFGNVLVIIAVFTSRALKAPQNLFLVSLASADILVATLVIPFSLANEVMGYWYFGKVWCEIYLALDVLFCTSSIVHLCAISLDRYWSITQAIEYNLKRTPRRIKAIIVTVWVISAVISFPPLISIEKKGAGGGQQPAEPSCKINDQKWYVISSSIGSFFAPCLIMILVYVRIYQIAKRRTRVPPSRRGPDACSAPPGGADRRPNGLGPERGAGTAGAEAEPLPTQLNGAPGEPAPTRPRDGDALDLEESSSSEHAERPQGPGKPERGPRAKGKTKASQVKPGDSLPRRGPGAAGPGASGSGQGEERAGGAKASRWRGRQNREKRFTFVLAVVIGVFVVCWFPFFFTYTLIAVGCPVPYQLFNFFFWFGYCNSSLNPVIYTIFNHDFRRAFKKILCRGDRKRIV
Procedure: Alpha-2D Adrenergic Receptor Binding Assay
Male, Wistar rats (150-250 g, VAF, Charles River, Kingston, N.Y.) are sacrificed by cervical dislocation and their brains removed and placed immediately in ice cold HEPES buffered sucrose. The cortex is dissected out and homogenized in 20 volumes of HEPES sucrose in a Teflon™-glass homogenizer. The homogenate is centrifuged at 1000 g for 10 min, and the resulting supernatant centrifuged at 42,000 g for 10 min. The resulting pellet is resuspended in 30 volumes of 3 mM potassium phosphate buffer, pH 7.5, preincubated at 25° C. for 30 min and recentrifuged. The resulting pellet is resuspended as described above and used for the receptor binding assay. […] The incubation is terminated by filtration of the tube contents through glass fiber filter sheets. Following washing of the sheets with 10 mM HEPES buffer, the adhering radioactivity is quantified by liquid scintillation spectrometry.
Binding of the test drug to the receptor is determined by comparing the amount of radiolabeled ligand bound in control tubes without drug to the amount of radiolabeled ligand bound in the presence of the drug. Dose-response data are analyzed with LIGAND, a nonlinear curve fitting program designed specifically for the analysis of ligand binding data.

SMILES	melting point [°C]	% inh of MAIT [1] [po %]	Ki [2] [nM]	% inh of α2D [2] [%]	Ki ([2]; rat cortex synaptic membranes, ligand 3H-para-aminoclonidine, cells without % sign, read-out: α2D Ki) [nM]
Cc1ncccc1Cc1c[nH]cn1.Cl.Cl [Cp-1, 4-[(2-Methylpyrid-3-yl)methyl]-1H-imidazole Dihydrochloride]	236 to 237.5	93	7.1		
Cc1ncccc1CCc1c[nH]cn1.Cl.Cl [Cp-2, 4-[(2-Methylpyrid-3-yl)ethyl]-1H-imidazole Dihydrochloride]	258.5 to 263				
Cl.Cl.c1cncc(Cc2c[nH]cn2)c1 [Cp-3]		47		89	
Brc1cncc(Cc2c[nH]cn2)c1.O=C(O)/C=C/C(=O)O [Cp-4, 4-[(5-Bromopyridin-3-yl)methyl]-1H-imidazole Fumarate]	139 to 145	54		83	
Brc1cncc(CCc2c[nH]cn2)c1.O=C(O)/C=C/C(=O)O [Cp-5, 4-[(5-Bromopyridin-3-yl)ethyl]-1H-imidazole Fumarate]	156 to 158				
Cl.c1ccc(Cc2c[nH]cn2)nc1 [Cp-6, 4-[(Pyridin-2-yl)methyl]-1H-imidazole Hydrochloride]	197 to 200	40		83	
c1ccc(C(c2ccccn2)c2c[nH]cn2)cc1 (stereo not shown) [Cp-7, 4-[(Pyridin-2-yl)methylphenyl]-1H-imidazole]		13			1000
c1ccc2nc(Cc3c[nH]cn3)ccc2c1 [Cp-9]		20	1.6		
Cc1ncccc1C(C)c1c[nH]cn1 (stereo not shown) [Dihydrochloride]		33			
CC(c1cncc(Br)c1)c1c[nH]cn1 (stereo not shown) [Fumarate]		53			
